Measured values: the kinase profiling compilation of Christmann-Franck et al. (2016)

Key:
Assay in all cases: radiometric filter-binding kinase assay, Kinase HotSpot
Conditions in all cases: compound 0.5 µM; ATP 10 µM
CAMK2B (human) = CAMK2B (human) (UniProt Q13554)
MARK4 (human) = MARK4 (human) (UniProt Q96L34)
GSK3A (human) = GSK3A (human) (UniProt P49840)
LIMK1 (human) = LIMK1 (human) (UniProt P53667)
WNK3 (human) = WNK3 (human) (UniProt Q9BYP7)
CDK9 CCNK (human) = CDK9 CCNK (human) (UniProt O75909+P50750)
PRKG2 (human) = PRKG2 (human) (UniProt Q13237)
CDK1 CCNB1 (human) = CDK1 CCNB1 (human) (UniProt P06493+P14635)
CHEK1 (human) = CHEK1 (human) (UniProt O14757)
FGFR3 (human) = FGFR3 (human) (UniProt P22607)
ULK1 (human) = ULK1 (human) (UniProt O75385)
FLT3 (human) = FLT3 (human) (UniProt P36888)
HIPK2 (human) = HIPK2 (human) (UniProt Q9H2X6)
PRKACA (human) = PRKACA (human) (UniProt P17612)
RPS6KA4 KD2 (human) = RPS6KA4 KD2 (human) (UniProt O75676)
NEK9 (human) = NEK9 (human) (UniProt Q8TD19)
ACVRL1 (human) = ACVRL1 (human) (UniProt P37023)
TBK1 (human) = TBK1 (human) (UniProt Q9UHD2)
CHEK2 (human) = CHEK2 (human) (UniProt O96017)
NEK4 (human) = NEK4 (human) (UniProt P51957)
MATK (human) = MATK (human) (UniProt P42679)
MAP3K7 TAB1 (human) = MAP3K7 TAB1 (human) (UniProt O43318+Q15750)
PHKG2 (human) = PHKG2 (human) (UniProt P15735)
CSNK1E (human) = CSNK1E (human) (UniProt P49674)
EPHA1 (human) = EPHA1 (human) (UniProt P21709)
CDK4 CCND3 (human) = CDK4 CCND3 (human) (UniProt P30281+P11802)
ABL2 (human) = ABL2 (human) (UniProt P42684)
MST4 (human) = MST4 (human) (UniProt Q9P289)
AXL (human) = AXL (human) (UniProt P30530)
CHUK (human) = CHUK (human) (UniProt O15111)
ROCK2 (human) = ROCK2 (human) (UniProt O75116)
PIM3 (human) = PIM3 (human) (UniProt Q86V86)
CDK2 CCNA2 (human) = CDK2 CCNA2 (human) (UniProt P24941+P20248)
MAP4K5 (human) = MAP4K5 (human) (UniProt Q9Y4K4)
PDGFRA (human) = PDGFRA (human) (UniProt P16234)
PRKD2 (human) = PRKD2 (human) (UniProt Q9BZL6)
VRK1 (human) = VRK1 (human) (UniProt Q99986)
KDR (human) = KDR (human) (UniProt P35968)
RPS6KA5 KD2 (human) = RPS6KA5 KD2 (human) (UniProt O75582)
TGFBR2 (human) = TGFBR2 (human) (UniProt P37173)
ERBB4 (human) = ERBB4 (human) (UniProt Q15303)

Sequence of WNK3 (human) (Q9BYP7 whole entry, looked up): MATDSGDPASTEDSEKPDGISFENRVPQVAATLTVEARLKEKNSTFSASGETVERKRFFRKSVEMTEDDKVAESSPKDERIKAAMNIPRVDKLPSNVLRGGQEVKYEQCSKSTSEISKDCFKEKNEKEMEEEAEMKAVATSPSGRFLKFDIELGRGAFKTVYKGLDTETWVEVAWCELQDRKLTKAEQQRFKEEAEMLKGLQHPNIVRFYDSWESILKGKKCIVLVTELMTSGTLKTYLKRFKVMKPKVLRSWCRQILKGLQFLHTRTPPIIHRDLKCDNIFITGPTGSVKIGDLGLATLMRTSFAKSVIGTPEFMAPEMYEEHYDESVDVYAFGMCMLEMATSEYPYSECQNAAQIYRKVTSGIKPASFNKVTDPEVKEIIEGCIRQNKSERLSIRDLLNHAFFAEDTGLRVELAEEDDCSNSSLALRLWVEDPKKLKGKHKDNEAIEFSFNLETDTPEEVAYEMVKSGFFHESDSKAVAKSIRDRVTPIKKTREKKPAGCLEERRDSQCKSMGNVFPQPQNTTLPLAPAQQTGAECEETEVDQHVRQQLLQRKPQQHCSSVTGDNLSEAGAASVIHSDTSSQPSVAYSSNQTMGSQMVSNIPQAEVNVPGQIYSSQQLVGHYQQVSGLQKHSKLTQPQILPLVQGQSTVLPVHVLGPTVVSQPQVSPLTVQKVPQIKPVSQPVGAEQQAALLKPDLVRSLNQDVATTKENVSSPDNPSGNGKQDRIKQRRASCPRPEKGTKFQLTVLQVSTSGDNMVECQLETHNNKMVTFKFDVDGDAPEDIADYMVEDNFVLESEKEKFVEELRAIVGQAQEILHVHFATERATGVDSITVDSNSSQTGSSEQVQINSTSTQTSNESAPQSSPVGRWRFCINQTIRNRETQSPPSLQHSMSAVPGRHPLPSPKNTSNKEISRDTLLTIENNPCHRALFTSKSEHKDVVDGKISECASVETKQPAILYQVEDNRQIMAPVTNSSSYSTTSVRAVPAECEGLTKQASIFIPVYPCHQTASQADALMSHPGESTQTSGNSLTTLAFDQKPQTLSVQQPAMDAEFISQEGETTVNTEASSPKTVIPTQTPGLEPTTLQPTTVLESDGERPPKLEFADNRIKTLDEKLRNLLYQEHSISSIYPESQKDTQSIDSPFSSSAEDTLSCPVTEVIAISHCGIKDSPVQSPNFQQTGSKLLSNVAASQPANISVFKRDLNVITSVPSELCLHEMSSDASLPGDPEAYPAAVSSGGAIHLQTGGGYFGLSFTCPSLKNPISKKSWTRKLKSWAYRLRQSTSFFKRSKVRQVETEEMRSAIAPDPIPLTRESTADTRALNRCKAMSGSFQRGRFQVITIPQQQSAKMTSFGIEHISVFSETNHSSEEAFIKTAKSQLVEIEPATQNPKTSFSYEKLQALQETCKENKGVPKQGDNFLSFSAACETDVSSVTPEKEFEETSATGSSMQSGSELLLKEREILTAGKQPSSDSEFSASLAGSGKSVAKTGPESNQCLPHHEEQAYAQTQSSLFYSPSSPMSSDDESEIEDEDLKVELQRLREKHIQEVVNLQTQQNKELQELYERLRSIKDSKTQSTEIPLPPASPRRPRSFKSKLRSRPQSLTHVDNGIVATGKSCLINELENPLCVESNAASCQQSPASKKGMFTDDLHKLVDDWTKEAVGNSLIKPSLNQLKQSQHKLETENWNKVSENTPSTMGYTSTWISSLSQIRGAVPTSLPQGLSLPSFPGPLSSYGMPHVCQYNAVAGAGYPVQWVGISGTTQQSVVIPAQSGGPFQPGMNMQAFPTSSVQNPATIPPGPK
Sequence of CHEK2 (human) (O96017 whole entry, looked up): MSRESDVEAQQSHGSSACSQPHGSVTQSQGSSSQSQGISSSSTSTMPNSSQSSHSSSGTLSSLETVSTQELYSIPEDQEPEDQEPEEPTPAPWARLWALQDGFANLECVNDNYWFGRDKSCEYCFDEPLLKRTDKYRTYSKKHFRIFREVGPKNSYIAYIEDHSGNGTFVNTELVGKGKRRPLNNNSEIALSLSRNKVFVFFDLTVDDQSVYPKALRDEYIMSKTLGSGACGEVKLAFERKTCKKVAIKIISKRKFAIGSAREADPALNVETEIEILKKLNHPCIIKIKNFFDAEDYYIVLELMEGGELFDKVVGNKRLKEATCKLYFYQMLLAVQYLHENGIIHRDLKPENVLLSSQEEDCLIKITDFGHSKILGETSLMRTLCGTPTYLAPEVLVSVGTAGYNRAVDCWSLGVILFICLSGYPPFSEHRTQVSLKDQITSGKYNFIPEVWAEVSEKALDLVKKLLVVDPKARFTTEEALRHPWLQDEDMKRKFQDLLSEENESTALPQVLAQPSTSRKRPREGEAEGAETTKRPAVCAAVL
Sequence of CHEK1 (human) (O14757 whole entry, looked up): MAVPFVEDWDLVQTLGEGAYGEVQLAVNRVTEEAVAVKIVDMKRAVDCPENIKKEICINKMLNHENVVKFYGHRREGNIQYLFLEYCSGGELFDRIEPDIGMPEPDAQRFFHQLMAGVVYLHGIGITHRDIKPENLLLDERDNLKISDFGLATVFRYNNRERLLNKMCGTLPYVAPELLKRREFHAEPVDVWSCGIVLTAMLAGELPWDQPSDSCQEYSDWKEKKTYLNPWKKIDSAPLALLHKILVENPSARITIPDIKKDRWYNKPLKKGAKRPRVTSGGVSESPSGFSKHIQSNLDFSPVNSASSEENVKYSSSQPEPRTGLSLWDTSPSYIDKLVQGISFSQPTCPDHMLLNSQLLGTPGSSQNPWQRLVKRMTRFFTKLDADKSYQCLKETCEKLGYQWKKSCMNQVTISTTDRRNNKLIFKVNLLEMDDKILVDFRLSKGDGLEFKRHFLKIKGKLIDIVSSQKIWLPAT
Sequence of ACVRL1 (human) (P37023 whole entry, looked up): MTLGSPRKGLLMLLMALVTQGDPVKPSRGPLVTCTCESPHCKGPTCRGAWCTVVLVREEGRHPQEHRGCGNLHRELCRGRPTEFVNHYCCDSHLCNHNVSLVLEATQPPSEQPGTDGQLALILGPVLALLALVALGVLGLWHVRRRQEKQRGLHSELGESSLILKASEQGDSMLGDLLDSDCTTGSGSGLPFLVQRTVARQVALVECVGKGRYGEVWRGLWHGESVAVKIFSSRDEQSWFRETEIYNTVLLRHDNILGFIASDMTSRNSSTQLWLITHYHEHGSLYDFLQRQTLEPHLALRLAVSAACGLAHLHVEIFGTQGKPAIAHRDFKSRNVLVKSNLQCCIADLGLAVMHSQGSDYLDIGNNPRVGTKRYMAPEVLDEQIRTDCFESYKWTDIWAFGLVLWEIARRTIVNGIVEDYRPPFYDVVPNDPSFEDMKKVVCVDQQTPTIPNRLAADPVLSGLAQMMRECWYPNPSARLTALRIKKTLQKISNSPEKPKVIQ
Sequence of HIPK2 (human) (Q9H2X6 whole entry, looked up): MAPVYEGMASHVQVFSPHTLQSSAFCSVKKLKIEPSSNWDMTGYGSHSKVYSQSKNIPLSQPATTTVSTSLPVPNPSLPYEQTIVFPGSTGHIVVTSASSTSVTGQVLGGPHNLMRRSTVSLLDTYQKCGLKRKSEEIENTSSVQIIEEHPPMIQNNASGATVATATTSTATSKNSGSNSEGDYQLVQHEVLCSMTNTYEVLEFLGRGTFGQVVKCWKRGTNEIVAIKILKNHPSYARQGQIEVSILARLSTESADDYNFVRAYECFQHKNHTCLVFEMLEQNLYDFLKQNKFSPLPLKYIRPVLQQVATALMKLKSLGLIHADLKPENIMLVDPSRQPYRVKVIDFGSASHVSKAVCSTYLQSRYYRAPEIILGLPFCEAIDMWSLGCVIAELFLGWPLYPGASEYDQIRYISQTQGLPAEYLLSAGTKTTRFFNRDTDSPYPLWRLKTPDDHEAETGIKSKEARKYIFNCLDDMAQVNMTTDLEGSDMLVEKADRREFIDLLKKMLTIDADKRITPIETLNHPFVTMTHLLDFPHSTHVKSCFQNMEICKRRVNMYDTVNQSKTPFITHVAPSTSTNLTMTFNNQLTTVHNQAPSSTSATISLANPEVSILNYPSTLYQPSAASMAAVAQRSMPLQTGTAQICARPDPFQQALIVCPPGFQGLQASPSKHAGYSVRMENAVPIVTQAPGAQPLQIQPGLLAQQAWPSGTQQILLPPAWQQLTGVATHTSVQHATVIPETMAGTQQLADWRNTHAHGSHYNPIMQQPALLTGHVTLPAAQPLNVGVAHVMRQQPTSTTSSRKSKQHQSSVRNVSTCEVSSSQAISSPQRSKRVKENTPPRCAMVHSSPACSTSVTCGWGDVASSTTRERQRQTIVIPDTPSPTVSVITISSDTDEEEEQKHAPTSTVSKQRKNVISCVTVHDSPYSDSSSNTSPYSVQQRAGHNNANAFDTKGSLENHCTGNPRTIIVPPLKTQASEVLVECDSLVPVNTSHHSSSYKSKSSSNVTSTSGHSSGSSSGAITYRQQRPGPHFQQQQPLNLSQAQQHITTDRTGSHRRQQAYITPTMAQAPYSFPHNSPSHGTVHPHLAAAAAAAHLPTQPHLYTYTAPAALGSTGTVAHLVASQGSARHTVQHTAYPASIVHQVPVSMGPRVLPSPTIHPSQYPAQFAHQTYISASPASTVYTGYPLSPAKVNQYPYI

| Compound | residual activity (CAMK2B (human)) [%] | residual activity (MARK4 (human)) [%] | residual activity (GSK3A (human)) [%] | residual activity (LIMK1 (human)) [%] | residual activity (WNK3 (human)) [%] | residual activity (CDK9 CCNK (human)) [%] | residual activity (PRKG2 (human)) [%] | residual activity (CDK1 CCNB1 (human)) [%] | residual activity (FGFR3 (human)) [%] | residual activity (ULK1 (human)) [%] | residual activity (FLT3 (human)) [%] | residual activity (HIPK2 (human)) [%] | residual activity (PRKACA (human)) [%] | residual activity (RPS6KA4 KD2 (human)) [%] | residual activity (NEK9 (human)) [%] | residual activity (ACVRL1 (human)) [%] | residual activity (TBK1 (human)) [%] | residual activity (CHEK2 (human)) [%] | residual activity (NEK4 (human)) [%] | residual activity (MATK (human)) [%] | also measured |
| --- | --- | --- | --- | --- | --- | --- | --- | --- | --- | --- | --- | --- | --- | --- | --- | --- | --- | --- | --- | --- | --- |
| CCCNC(=O)Nc1ccc(Oc2ncnc3cc(OC)c(OC)cc23)cc1Cl | 94.9 | 110 | 98.8 | 81.6 | 93.8 | 103 | 97 | 98 | 84.5 | 83.2 | 82.1 | 97.9 | 99.7 | 98.5 | 83.3 | 100 | 90 | 80 | 76 | 96.8 | residual activity (CHEK1 (human)): 77%; residual activity (MAP3K7 TAB1 (human)): 103%; residual activity (PHKG2 (human)): 84.1%; residual activity (CSNK1E (human)): 78.5%; residual activity (EPHA1 (human)): 96.9%; residual activity (CDK4 CCND3 (human)): 101%; residual activity (ABL2 (human)): 90.5%; residual activity (MST4 (human)): 86.9%; residual activity (AXL (human)): 101%; residual activity (CHUK (human)): 84.9%; residual activity (ROCK2 (human)): 97.7%; residual activity (PIM3 (human)): 81.3%; residual activity (CDK2 CCNA2 (human)): 92.8%; residual activity (MAP4K5 (human)): 54.6%; residual activity (PDGFRA (human)): 92.2%; residual activity (PRKD2 (human)): 94.3%; residual activity (VRK1 (human)): 104%; residual activity (KDR (human)): 19.7%; residual activity (RPS6KA5 KD2 (human)): 95.6%; residual activity (TGFBR2 (human)): 109% |
| O=c1cc(N2CCNCC2)oc2c(-c3ccccc3)cccc12 | 108 | 92.8 | 99.7 | 108 | 93.4 | 94.2 | 107 | 106 | 96.3 | 107 | 108 | 108 | 110 | 117 | 102 | 106 | 98.7 | 96.6 | 86.4 | 84.5 | residual activity (CHEK1 (human)): 104%; residual activity (MAP3K7 TAB1 (human)): 94.2%; residual activity (PHKG2 (human)): 96.9%; residual activity (CSNK1E (human)): 101%; residual activity (EPHA1 (human)): 112%; residual activity (CDK4 CCND3 (human)): 101%; residual activity (ABL2 (human)): 99.5%; residual activity (ERBB4 (human)): 104%; residual activity (MST4 (human)): 96.3%; residual activity (AXL (human)): 117%; residual activity (CHUK (human)): 103%; residual activity (ROCK2 (human)): 87.5%; residual activity (PIM3 (human)): 93.5%; residual activity (CDK2 CCNA2 (human)): 104%; residual activity (PDGFRA (human)): 97.4%; residual activity (PRKD2 (human)): 86.7%; residual activity (VRK1 (human)): 92.1%; residual activity (KDR (human)): 99.8%; residual activity (RPS6KA5 KD2 (human)): 99.1%; residual activity (TGFBR2 (human)): 88.4% |
| O=C1Cc2c([nH]c3ccc([N+](=O)[O-])cc23)-c2ccccc2N1 | 98.1 | 55.4 | 0.971 | 94.3 | 99.7 | 24.2 | 97.6 | 23.2 | 90.5 | 85.1 | 19.7 | 110 | 87.4 | 90.6 | 99.3 | 76.2 | 82.4 | 7.9 | 109 | 98.9 | residual activity (CHEK1 (human)): 37.5%; residual activity (MAP3K7 TAB1 (human)): 67.5%; residual activity (PHKG2 (human)): 101%; residual activity (CSNK1E (human)): 95.9%; residual activity (EPHA1 (human)): 94.8%; residual activity (ABL2 (human)): 54.6%; residual activity (ERBB4 (human)): 87.3%; residual activity (MST4 (human)): 78.6%; residual activity (AXL (human)): 100%; residual activity (CHUK (human)): 103%; residual activity (ROCK2 (human)): 82%; residual activity (PIM3 (human)): 62.3%; residual activity (CDK2 CCNA2 (human)): 8.37%; residual activity (MAP4K5 (human)): 15.9%; residual activity (PDGFRA (human)): 91.7%; residual activity (PRKD2 (human)): 101%; residual activity (VRK1 (human)): 90.8%; residual activity (KDR (human)): 87.8%; residual activity (RPS6KA5 KD2 (human)): 107%; residual activity (TGFBR2 (human)): 19.4% |
| Nc1nc(Nc2ccc(S(N)(=O)=O)cc2)nn1C(=S)Nc1c(F)cccc1F | 9.5 | 2.33 | 6.3 | -0.611 | 82.2 | 7.46 | 61.4 | -1.78 | 4.96 | 5.03 | 1.07 | 62.1 | 78.2 | 42.8 | 39.1 | 15.1 | 10.3 | 1.96 | 60.5 | 133 | residual activity (MAP3K7 TAB1 (human)): 12.5%; residual activity (PHKG2 (human)): 95.5%; residual activity (CSNK1E (human)): 91.8%; residual activity (EPHA1 (human)): 37.4%; residual activity (CDK4 CCND3 (human)): 3.67%; residual activity (ABL2 (human)): 10.5%; residual activity (ERBB4 (human)): 98%; residual activity (MST4 (human)): 4.54%; residual activity (AXL (human)): 34.2%; residual activity (CHUK (human)): 54.4%; residual activity (ROCK2 (human)): 6.22%; residual activity (PIM3 (human)): 89.1%; residual activity (CDK2 CCNA2 (human)): 1.56%; residual activity (MAP4K5 (human)): 1.71%; residual activity (PDGFRA (human)): 56.4%; residual activity (PRKD2 (human)): 9.05%; residual activity (VRK1 (human)): 94.6%; residual activity (KDR (human)): 6.55%; residual activity (RPS6KA5 KD2 (human)): 68.1%; residual activity (TGFBR2 (human)): 89.3% |
| O=C1Nc2ccccc2/C1=C\c1c(Cl)[nH]c2ccccc12 | 108 | 106 | 99.3 | 109 | 101 | 98.3 | 71.7 | 94.3 | 101 | 106 | 80.5 | 96.5 | 102 | 93.6 | 94.2 | 99.8 | 95.9 | 99.4 | 97.7 | 89.5 | residual activity (CHEK1 (human)): 93.7%; residual activity (MAP3K7 TAB1 (human)): 99.2%; residual activity (PHKG2 (human)): 84.2%; residual activity (CSNK1E (human)): 87.8%; residual activity (EPHA1 (human)): 98.5%; residual activity (CDK4 CCND3 (human)): 97.4%; residual activity (ABL2 (human)): 91.4%; residual activity (ERBB4 (human)): 103%; residual activity (AXL (human)): 97.8%; residual activity (CHUK (human)): 94.2%; residual activity (ROCK2 (human)): 90.2%; residual activity (PIM3 (human)): 100%; residual activity (CDK2 CCNA2 (human)): 91.5%; residual activity (MAP4K5 (human)): 95%; residual activity (PDGFRA (human)): 88.7%; residual activity (PRKD2 (human)): 90.2%; residual activity (VRK1 (human)): 104%; residual activity (KDR (human)): 96.3%; residual activity (RPS6KA5 KD2 (human)): 85.5%; residual activity (TGFBR2 (human)): 95.6% |
